According to ChEMBL document CHEMBL5608141, “Identification of compartment-specific drug sensitivities in CRC organoid-stroma co-cultures” (2024):
Non-standard residues stand in square brackets, D forms with d. Residues, ends and D or L forms follow the SMILES beside them. Arg(Me) = CNC(=N)NCCC[C@H](N)C(=O)O; d3Pal = N[C@H](Cc1cccnc1)C(=O)O; azaGly = NNC(=O)O

Columns and labels:
Format in all cases: functional, Homo sapiens
Set-up in all cases: dose or concentration left out as unconfirmed
[1] = system: Colon cancer organoid; assay: Identification of compartment-specific drug sensitivities in O14 CRC organoid-stroma F14 CAF co-cultures. Organoid is transduced with Lucferase2-P2A-EGFP lentivirus, fibroblast with Renilla-dsRed lentivirus. Dual-Glo Luciferase assay is used to report viability data.
[2] = system: Colon cancer organoid; assay: Identification of compartment-specific drug sensitivities in O20 CRC organoid-stroma F20 CAF co-cultures. Organoid is transduced with Lucferase2-P2A-EGFP lentivirus, fibroblast with Renilla-dsRed lentivirus. Dual-Glo Luciferase assay is used to report viability data.
[3] = system: Colon cancer organoid; assay: Identification of compartment-specific drug sensitivities in O06 CRC organoid-stroma F06 CAF co-cultures. Organoid is transduced with Lucferase2-P2A-EGFP lentivirus, fibroblast with Renilla-dsRed lentivirus. Dual-Glo Luciferase assay is used to report viability data.
[4] = Transduced with Lucferase2-P2A-EGFP lentivirus
[5] = Transduced with Renilla-dsRed lentivirus

| SMILES | Cell Viability [1, 4] | Cell Viability [1, 5] | Cell Viability [2, 4] | Cell Viability [2, 5] | Cell Viability [3, 4] | Cell Viability [3, 5] |
| --- | --- | --- | --- | --- | --- | --- |
| CN(C)C(=O)N1CC[C@H](NC2=Nc3cc(F)ccc3N(CC(F)F)c3ccc(Cl)cc32)C1 | 119.43% | 91.6025% | 71.357% | 98.2431% | 22.5333% | 79.8107% |
| CCOC(=O)c1c(/C(C#N)=C\N)c2ccc(Cl)c(Cl)c2n1C | 89.9628% | 62.6784% | 91.9928% | 87.4636% | 122.99% | 97.4073% |
| O=C(c1ccc(F)c(F)c1Nc1ccc(I)cc1F)N1CC(O)([C@@H]2CCCCN2)C1 [COBIMETINIB] | 13.8076% | 23.8651% | 4.065% | 77.761% | 5.143% | 42.4292% |
| C[C@@H](c1cccc(C#N)c1)n1cc(Cl)cc(C(N)=O)c1=N.Cl | 101.632% | 106.42% | 64.4613% | 72.4154% | 92.5611% | 127.503% |
| COCc1nc2cnc3cc(-c4c(C)noc4C)c(OC[C@H]4CCNC4)cc3c2n1[C@H](C)c1ccccc1 [GSK778] | 41.3417% | 133.991% | 27.6505% | 143.906% | 81.063% | 183.714% |
| CN(C)C/C=C/C(=O)Nc1cc2c(Nc3ccc(F)c(Cl)c3)ncnc2cc1O[C@H]1CCOC1.O=C(O)/C=C\C(=O)O.O=C(O)/C=C\C(=O)O [AFATINIB DIMALEATE] | 29.0273% | 34.3509% | 37.8231% | 73.123% | 26.678% | 56.3894% |
| Cc1cc(C)cc([C@H]2c3cc(C)ccc3NC(=O)CN2C(=O)c2ccc(Br)s2)c1 | 153.941% | 101.442% | 134.675% | 98.7461% | 94.0417% | 115.465% |
| COc1ccccc1-c1cc(Nc2cccc(CS(N)(=O)=O)c2)ncn1 | 188.969% | 77.1823% | 105.142% | 97.4583% | 105.6% | 95.8866% |
| Cc1nc(N2CC[C@H](O)C2)ncc1-c1cc(C(F)(F)F)cc2[nH]ncc12 | 76.9456% | 116.548% | 47.2711% | 153.575% | 124.32% | 144.84% |
| O=C(Nc1cnc(Oc2ccc(F)cc2)nc1)N1CCc2ncccc2[C@@H]1c1ccc(F)cc1 [BAY-899] | 105.834% | 99.8567% | 151.912% | 104.61% | 92.2798% | 100.101% |
| Cn1c(-c2csc(C3CCN(CC4=NC5N=CC=CC5N4)CC3)n2)nc2ccccc21 (stereo not given) [BAY-070] | 72.3778% | 60.078% | 42.0794% | 84.0468% | 29.934% | 49.5381% |
| CCN(C(=O)CO)[C@H]1CN(/C(=N\C#N)Nc2cccc(OC(F)F)c2)N=C1c1ccc(Cl)c(Cl)c1 | 106.236% | 108.187% | 98.7267% | 141.776% | 100.328% | 102.729% |
| CN1C[C@H](Nc2cnn(C)c(=O)c2Br)C[C@H](c2ccccc2)C1 | 132.078% | 105.854% | 160.124% | 106.068% | 52.3497% | 181.327% |
| CC(C)(O)CNc1ncc(-c2ccnc(Nc3ccnc(Cl)c3)n2)c(CC2CC2)n1 | 84.1319% | 170.669% | 67.8279% | 172.835% | 30.6205% | 168.017% |
| CCC(=O)Nc1cccc(Oc2nc(Nc3ccc(N4CCN(C)CC4)cc3OC)ncc2Cl)c1 | 157.299% | 90.5023% | 125.304% | 105.023% | 92.8013% | 94.5997% |
| CNCCN1CCC(c2cc(CN(C)C(=O)c3cccc(Oc4ccccc4)c3)ccn2)CC1 | 146.315% | 111.036% | 67.5507% | 133.473% | 83.6812% | 129.007% |
| CCOC(=O)CCNc1cc(N2CCc3ccccc3CC2)nc(-c2cccnc2)n1 | 87.4597% | 97.4259% | 102.371% | 131.422% | 130.773% | 124.082% |
| CNC(=N)NCCC[C@H](NC(=O)[C@H](CC(C)C)NC(=O)NNC(=O)[C@H](Cc1ccccc1)NC(=O)[C@H](CO)NC(=O)[C@H](CC(N)=O)NC(=O)[C@@H](Cc1cccnc1)NC(=O)[C@H](N)Cc1ccc(O)cc1)C(=O)NCC(N)=O [KISS1-543] (H-[dY][d3Pal]NSF[azaGly]L[Arg(Me)]G-NH2) | 105.115% | 104.622% | 101.104% | 120.489% | 93.1752% | 90.9674% |
| CN(C)C(=O)c1sc2nc(N3CCC(S(C)(=O)=O)CC3)cc(C(F)(F)F)c2c1N [BI-5026] | 89.1429% | 109.835% | 83.1119% | 112.021% | 108.851% | 103.89% |
| Cl.O=C(O)c1cc(-c2ccc(C3CCNCC3)cc2)c2ccc(-c3ccc(C(F)(F)F)cc3)cc2c1 | 158.935% | 99.9399% | 106.654% | 101.384% | 107.895% | 117.47% |
| CC(C)N(CCCNC(=O)Nc1ccc(C(C)(C)C)cc1)C[C@H]1O[C@@H](n2cc(Br)c3c(N)ncnc32)[C@H](O)[C@@H]1O | 74.0278% | 90.8718% | 59.6009% | 110.156% | 62.4885% | 97.8527% |
| CN(C)CCOc1ccc(-c2nc(-c3ccncc3)c(-c3ccc4c(c3)CC/C4=N\O)[nH]2)cc1 [SB590885] | 183.636% | 84.6732% | 154.959% | 68.1541% | 79.2379% | 96.48% |
| COc1cc(C)c(Sc2cnc(NC(=O)c3ccc(CNC(C)C(C)(C)C)cc3)s2)cc1C(=O)N1CCN(C(C)=O)CC1 (stereo not given) | 52.0168% | 58.5352% | 91.6907% | 97.5626% | 97.8632% | 73.4932% |
| CC(=O)Nc1nc(CN2CCC[C@H](Cc3cc(C)nc(C)c3)C2)cs1 [JNJ-73924149] | 104.416% | 83.6177% | 90.3874% | 105.251% | 82.0789% | 131.954% |
| CC(=O)Nc1c(C(C)=O)c(=O)n(C)c2nc(-c3ccc(Cl)cc3Cl)c(-c3ccc(Cl)cc3)cc12 [NAPHTHYRIDINONE] | 155.496% | 107.032% | 105.882% | 98.6055% | 72.6588% | 141.036% |
| CC[C@H](CC(=O)O)n1c(=O)c2ncccc2n(Cc2cn(C)c3cc(C)cc(C)c23)c1=O [BI-1942] | 102.331% | 109.089% | 108.303% | 100.799% | 119.907% | 136.619% |
| Cc1ccc(-c2cnc([C@@]3(O)CC[C@H](C(=O)O)C(C)(C)C3)s2)cc1Nc1cccc(C(F)(F)F)n1 [MRL-SYKi-NC] | 134.887% | 107.343% | 106.503% | 131.597% | 119.382% | 86.5869% |
| CN1CCN(c2cnc3c(C4CCN(C(=O)c5ccc(OC(F)(F)F)cc5N)CC4)ncnc3c2)CC1 [BAY-885] | 91.6174% | 96.8328% | 78.4575% | 141.163% | 128.922% | 132.533% |
| CN([C@@H]1CCc2c(CC(=O)O)c3cc(S(C)(=O)=O)ccc3n2C1)S(=O)(=O)c1ccc(F)cc1 [CRTH2-negative-control] | 107.65% | 94.275% | 107.561% | 126.69% | 78.3965% | 74.5251% |
| Cc1cc2c(-c3ccco3)cnc(N[C@@H]3CCN(C)C[C@H]3C(=O)NC3CCCCC3)c2[nH]c1=O [GSK789] | 52.4382% | 127.289% | 34.1492% | 125.83% | 76.5976% | 134.369% |
